# Measured values from patent US9226509B2, “Phagodeterrent compounds of fungal origin” (Consiglio Nazionale Delle Ricerche, priority 2011, dated 2016).
# System: aphid Rhopalosiphum padi
# Assay: Assay of the phagodeterrent activity of the R—OH alcohols (two-leaf choice test on wheat leaves in Petri dishes)
# Type: in vivo
# Details: alcohol 0.075 mM in 5% methanol aqueous suspension; wheat leaves; recorded each hour for 8 hours
# Procedure: Treatment of wheat leaves consisted of immersion of the same for 10 seconds in aqueous suspensions of 5% methanol of the different alcohols, some of which were also tested at different concentrations.
# As a control, the same number of leaves was prepared by immersion in an aqueous solution of 5% methanol only.
# Assay of the Phaqodeterrent Activity of the R—OH Alcohols:
# Petri dishes 9 cm in diameter were used, into each of which two wheat leaves were arranged in parallel and separated from one another by a distance of approximately 4 cm; one leaf was treated with the suspension in 5% methanol of alcohol at various concentrations, and the other control leaf was washed with a solution of 5% methanol. Aphids of the species Rhopalosiphum padi were introduced to the dishes (one per dish) at equal distance from the two leaves.
# For each test, 10 aphids were used and the same test was repeated at least 12 times, for at least 120 aphids. The number of aphids present on the treated leaves and on the control leaves was recorded each hour for a total of 8 hours.
# The raw data relating to the food choices of the aphids were analysed using the Generalised Linear Model (GLM) procedure for repeated measurements (SPSS release 15.01) and reported in Table 1. The differences of the media between the number of aphids per leaf at each […] and the number of aphids on corresponding control leaves were analysed and corrected by using the Bonferroni test for multiple comparisons.
row,Compound,Bonferroni test: Treated media (mean number of aphids on treated leaves)
1,CCCCCCCCCCCCCCCO [Pentadecanol],3.073 ± 0.335

# Same assay, conditions: alcohol 0.075 mM; treated vs 5% methanol control leaf
row,Compound,Bonferroni test: significance of treated vs control media
1,CCCCCCCCCCCCCCCO [Pentadecanol],** (** P < 0.01)

# Same assay, conditions: alcohol 0.15 mM in 5% methanol aqueous suspension; wheat leaves; recorded each hour for 8 hours
row,Compound,Bonferroni test: Treated media (mean number of aphids on treated leaves)
1,CCCCCCCCCCCCCCCCCO [Heptadecanol],3.240 ± 0.410
2,CCCCCCCCCCCCCCCCO [Hexadecanol],3.938 ± 0.429
3,CCCCCCCCCCCCCCCO [Pentadecanol],3.406 ± 0.405
4,CCCCCCCCCCCCCCO [Tetradecanol],2.375 ± 0.370

# Same assay, conditions: alcohol 0.15 mM; treated vs 5% methanol control leaf
row,Compound,Bonferroni test: significance of treated vs control media
1,CCCCCCCCCCCCCCCCCO [Heptadecanol],** (** P < 0.01)
2,CCCCCCCCCCCCCCCCO [Hexadecanol],* (*P < 0.05)
3,CCCCCCCCCCCCCCCO [Pentadecanol],** (** P < 0.01)
4,CCCCCCCCCCCCCCO [Tetradecanol],** (** P < 0.01)

# Same assay, conditions: alcohol 0.3 mM in 5% methanol aqueous suspension; wheat leaves; recorded each hour for 8 hours
row,Compound,Bonferroni test: Treated media (mean number of aphids on treated leaves)
1,CCCCCCCCCCCCCCCCCO [Heptadecanol],3.063 ± 0.532
2,CCCCCCCCCCCCCCCCO [Hexadecanol],2.635 ± 0.323
3,CCCCCCCCCCCCCCCO [Pentadecanol],2.271 ± 0.283
4,CCCCCCCCCCCCCCO [Tetradecanol],3.271 ± 0.217

# Same assay, conditions: alcohol 0.3 mM; treated vs 5% methanol control leaf
row,Compound,Bonferroni test: significance of treated vs control media
1,CCCCCCCCCCCCCCCCCO [Heptadecanol],** (** P < 0.01)
2,CCCCCCCCCCCCCCCCO [Hexadecanol],** (** P < 0.01)
3,CCCCCCCCCCCCCCCO [Pentadecanol],** (** P < 0.01)
4,CCCCCCCCCCCCCCO [Tetradecanol],** (** P < 0.01)

# Same assay, conditions: alcohol 0.6 mM in 5% methanol aqueous suspension; wheat leaves; recorded each hour for 8 hours
row,Compound,Bonferroni test: Treated media (mean number of aphids on treated leaves)
1,CCCCCCCCCCCCCCCCCO [Heptadecanol],2.177 ± 0.298
2,CCCCCCCCCCCCCCCCO [Hexadecanol],2.281 ± 0.371
3,CCCCCCCCCCCCCCCO [Pentadecanol],2.385 ± 0.237
4,CCCCCCCCCCCCCCO [Tetradecanol],2.365 ± 0.264

# Same assay, conditions: alcohol 0.6 mM; treated vs 5% methanol control leaf
row,Compound,Bonferroni test: significance of treated vs control media
1,CCCCCCCCCCCCCCCCCO [Heptadecanol],** (** P < 0.01)
2,CCCCCCCCCCCCCCCCO [Hexadecanol],** (** P < 0.01)
3,CCCCCCCCCCCCCCCO [Pentadecanol],** (** P < 0.01)
4,CCCCCCCCCCCCCCO [Tetradecanol],** (** P < 0.01)

# Same assay, conditions: alcohol 1.2 mM in 5% methanol aqueous suspension; wheat leaves; recorded each hour for 8 hours
row,Compound,Bonferroni test: Treated media (mean number of aphids on treated leaves)
1,CCCCCCCC/C=C\CCCCCCCCO [Cis-9-octadecenol],2.281 ± 0.283
2,CCCCCCCCCCCCCCCCCCCCO [Eicosanol],3.042 ± 0.303
3,CCCCCCCCCCCCCCCCCO [Heptadecanol],1.094 ± 0.294
4,CCCCCCCCCCCCCCCCO [Hexadecanol],1.308 ± 0.315
5,CCCCCCCCCCCCCCCCCCCO [Nonadecanol],3.427 ± 0.391
6,CCCCCCCCCCCCCCCO [Pentadecanol],1.365 ± 0.301
7,CCCCCCCCCCCCCCO [Tetradecanol],1.938 ± 0.322
8,Octadecenol,2.469 ± 0.333

# Same assay, conditions: alcohol 1.2 mM; treated vs 5% methanol control leaf
row,Compound,Bonferroni test: significance of treated vs control media
1,CCCCCCCC/C=C\CCCCCCCCO [Cis-9-octadecenol],** (** P < 0.01)
2,CCCCCCCCCCCCCCCCCCCCO [Eicosanol],** (** P < 0.01)
3,CCCCCCCCCCCCCCCCCO [Heptadecanol],** (** P < 0.01)
4,CCCCCCCCCCCCCCCCO [Hexadecanol],** (** P < 0.01)
5,CCCCCCCCCCCCCCCCCCCO [Nonadecanol],* (*P < 0.05)
6,CCCCCCCCCCCCCCCO [Pentadecanol],** (** P < 0.01)
7,CCCCCCCCCCCCCCO [Tetradecanol],** (** P < 0.01)
8,Octadecenol,** (** P < 0.01)
